According to US20260224555A1, “NEW PHENYLQUINOLONE COMPOUND HAVING ANTIBACTERIAL AND ANTI-CANCER FUNCTIONS AND PREPARATION THEREOF” (AlphaMol Science Ltd (Shanghai), priority 2022, published 2026):

Key:
Assay in all cases: In vitro anticancer activity test (MTT cell proliferation)
Type in all cases: cell-based
[1] = test system: Hela; settings: Homo sapiens
[2] = test system: human glioma cell SNB-19
Method: (§1) The anticancer activity of the compounds was tested using an in vitro cancer cell tests. The specific test method is as follows:
(§2) 1. Cell recovery and culture method: the cryovial was taken out from the liquid nitrogen container firstly, soaked directly in 37° C. warm water, and shaked from time to time to let it thaw as soon as possible. Then, the cryovial was transferred to a clean bench, and the lid was open. The cell suspension was taken into a centrifuge tube using a rubber-tipped dropper and more than 10 times the culture medium was added, mixed well, and centrifuged at 50 g for 5 minutes. Then, the supernatant was discarded, complete culture medium containing 10% fetal bovine serum was added to resuspend the cells, the cells was counted, the cell density was adjusted, and then inoculated into a culture bottle. The culture bottle was placed in a cell culture incubator at 5% CO2 and 37° C. The complete culture medium was replaced once the next day and the culture was continued.
(§3) 2. Cell passaging method: adherent cells in the logarithmic growth phase were placed in a clean bench, the original culture medium was discarded, and washed three times with 1×PBS. An appropriate amount of 0.25% trypsin digestion solution was added to moisten the cells, and then the trypsin solution was aspirated. The cells were placed in a cell culture incubator at 5% CO2 and 37° C. for digestion for a suitable time, and observed under a microscope. When 90% of the cells become round, the cells were moved immediately to the clean bench and complete culture medium was added to terminate digestion. Then, the cells were dislodged by pipetting up and down with a rubber-tipped dropper to single cells. The cells were counted, and the cell density was adjusted. The cells were inoculated into a suitable culture bottle or dish, added enough complete culture medium, and placed in a cell culture incubator at 5% CO2 and 37° C. for static culture.
(§4) For suspension cells in the logarithmic phase, the original culture medium was directly centrifuged at 50 g for 5 minutes, the supernatant was discarded, and the cells were washed once with PBS and centrifuged. After discarding the supernatant, the complete culture medium was added and the cells were dispersed using a rubber-tipped dropper. The cells are counted, and the cell density was adjusted. The cells were inoculated into appropriate culture bottles or culture dishes, and sufficient complete culture medium was added, and the cells were cultured in a cell culture incubator at 5% CO2 and 37° C.
(§5) 3. Cell proliferation assay: cells in good state in logarithmic phase were taken and appropriate amount of the cells was inoculated into 96-well plates according to the cell passage treatment method, with each well containing 180 μL complete medium. After the cells growth was recovered and the number of cells in each well is 5000±500, a drug was added for treatment.
(§6) After drug treatment during the experimental time, MTT solution with a final concentration of 0.5 mg/mL was added to each well, and placed in a cell culture incubator at 5% CO2 and 37° C. to allow a fully reaction of MTT with cells. After 4 hours, the solution in the 96-well plate was discarded, 100 µL of DMSO was added, and shaked to dissolve the formazan precipitated at the bottom of the plate, and the absorbance value of samples was detected at a wavelength of 570 nm using a microplate reader. Calculation method of cell viability rate: […]

[3] = test system: human acute monocytic leukemia cell THP-1
Method: as §1, §2, §3, §4, §5, §6

[4] = test system: human renal cancer cell OS-RC-2
Method: as §1, §2, §3, §4, §5, §6

[5] = test system: human gastric cancer cell MGC-803
Method: as §1, §2, §3, §4, §5, §6

[6] = test system: human liver cancer cell HepG2
Method: as §1, §2, §3, §4, §5, §6

[7] = test system: human acute myeloid leukemia cell MOLM-13
Method: as §1, §2, §3, §4, §5, §6

[8] = test system: human Burkitt's lymphoma cell Raji
Method: as §1, §2, §3, §4, §5, §6

[9] = test system: pancreatic cancer cell PNAC-1
Method: as §1, §2, §3, §4, §5, §6

[10] = test system: human malignant melanoma cell A375; settings: A-375
Method: as §1, §2, §3, §4, §5, §6

[11] = test system: human prostate cancer cell PC-3
Method: as §1, §2, §3, §4, §5, §6

[12] = test system: human liver cancer cell BLE-7402
Method: as §1, §2, §3, §4, §5, §6

[13] = test system: human breast cancer cell MFM223; settings: MFM-223
Method: as §1, §2, §3, §4, §5, §6

Measured: IC50

O=C(CCl)Nc1ncc(-c2cc3c(cc2F)c(=O)c(C(=O)O)cn3C2CC2)cc1F [Example 135]
1 to 10 µM: all assays above
